Results as given in patent US20230372492A1, “DRUGS CONJUGATED WITH HEXOSE PHOSPHATE AND METHODS OF MAKING AND USING SAME” (MISSISSIPPI STATE UNIVERSITY, priority 2020, published 2023).
Converted amounts (≈) assume the structure as drawn. “And” between values parts separate entries of the source, which are not always exact repeats. Equal entries are not always repeated. Where two headings read alike, the source gives them in different places.

Columns and labels:
[1] = system: Acinetobacter baumannii ATCC BAA1605; assay: MIC by broth microdilution (CLSI M07-A9); assay type: cell-based; details: Muller Hinton broth, 37° C.
Procedure: (§1) To test the antimicrobial activity of linezolid and linezolid conjugated with 3FG6P (Lzd-3FG6P) against Gram-positive and Gram-negative pathogens, the pathogens Staphylococcus aureus ATCC 25923, Klebsiella pneumoniae ATCC 35657, Acinetobacter baumannii ATCC BAA1605, Escherichia coli ATCC 25922, Enterobacter cloacae ATCC 13047, Enterobacter aerogenes ATCC13048, and Salmonella typhimurium ATCC 14028 were used. The minimal inhibitory concentration (MIC) was determined using broth microdilution following the instructions of Clinical and Laboratory Standards Institute (CLSI) document M07-A9 (Clinical and Laboratory Standards Institute. 2012. M07-A9. Methods for dilution antimicrobial susceptibility tests for bacteria that grow aerobically: approved standard. 9th ed. Clinical and Laboratory Standards Institute, Wayne, PA). Briefly, these bacterial strains were grown in Muller Hinton broth (MHB) until exponential phage (OD600<1.0). The exponentially grown testing bacteria were diluted to an OD600 of 0.01 in MHB and aliquoted in a 96 well plate. Stocks of linezolid (Lzd) and linezolid conjugated with 3FG6P (Lzd-3FG6P) were prepared at 10 mg/ml in DMSO which was diluted by two-fold serial dilutions from 64 μg/ml to 2 μg/ml (final concentration) and added to the 96 well plate. A DMSO control (0 μg/ml in the figures) was included. The plate was incubated at 37° C. and the growth of bacteria was monitored by measuring OD600 using a Cytation 5 plate reader (BioTek).

[2] = system: Enterobacter aerogenes ATCC13048; assay: MIC by broth microdilution (CLSI M07-A9); assay type: cell-based; details: Muller Hinton broth, 37° C.
Procedure: as §1

[3] = system: Enterobacter cloacae ATCC 13047; assay: MIC by broth microdilution (CLSI M07-A9); assay type: cell-based; details: Muller Hinton broth, 37° C.
Procedure: as §1

[4] = system: Escherichia coli ATCC 25922; assay: MIC by broth microdilution (CLSI M07-A9); assay type: cell-based; details: Muller Hinton broth, 37° C.
Procedure: as §1

[5] = system: Klebsiella pneumoniae ATCC 35657; assay: MIC by broth microdilution (CLSI M07-A9); assay type: cell-based; details: Muller Hinton broth, 37° C.
Procedure: as §1

[6] = system: Salmonella typhimurium ATCC 14028; assay: MIC by broth microdilution (CLSI M07-A9); assay type: cell-based; details: Muller Hinton broth, 37° C.
Procedure: as §1

[7] = system: Staphylococcus aureus ATCC 25923; assay: MIC by broth microdilution (CLSI M07-A9); assay type: cell-based; details: Muller Hinton broth, 37° C.
Procedure: as §1

[8] = system: Gram positive and Gram-negative pathogens; assay: Broth microdilution growth inhibition, summary over all tested pathogens; assay type: cell-based
Procedure: as §1, with “Stocks of linezolid (Lzd) and linezolid conjugated with 3FG6P (Lzd-3FG6P) were prepared at 10 mg/ml in DMSO which was diluted by two-fold serial dilutions from 64 μg/ml to 2 μg/ml (final concentration) and added to the 96 well plate. A DMSO control (0 μg/ml in the figures) was included.” left out

[9] = system: bioluminescent E. coli strain; assay: Mouse urinary tract infection with bioluminescent E. coli; assay type: in vivo, C57BL/6 mice; details: 80 mg/kg intraperitoneal at 2, 24 and 48 hours; 72 hours after infection
Procedure: C57BL/6 mice were transurethrally inoculated with bioluminescent E. coli strain and treated with PBS, linezolid (80 mg/kg), and linezolid conjugated with 3FG6P (80 mg/kg) at 2, 24, and 48 hours after inoculation. 72 hours after inoculation, the progress of the infection was monitored using a IVIS Lumina XR small animal imaging system and the bacterial burden in the kidney and bladder was determined by a plate counting method.
To test the in vivo antimicrobial activity of linezolid and linezolid conjugated with 3FG6P, clinical E. coli strains were constructed that constitutively express a bioluminescent light signal using pLuxABCDE plasmid. See Karsi A. Lawrence M L. Broad host range fluorescence and bioluminescence expression vectors for Gram-negative bacteria. Plasmid. 2007; 57(3):286-95. Epub 2007/01/09. doi: 10.1016/j.plasmid.2006.11.002. PubMed PMID: 17207855 for real time monitoring of the progress of infections. Six- to eight-week old female C57BL/6 mice were purchased from Harlan laboratory and were housed and maintained according to the protocol approved by the institutional animal care and use committee at Mississippi State University. Animals (n=6/group) were transurethrally infected with 50 μl of bioluminescent E. coli strain suspended in PBS (2×10^9 CFU/ml). Animals were treated with an intraperitoneal injection of linezolid (80 mg/kg), linezolid conjugated with 3FG6P (80 mg/kg) or PBS control at 2, 24, and 48 hours after infection. The progress of the infection was monitored by measuring the bioluminescent light signal using an IVIS Lumina X R small animal imaging system. After 72 hours infection, animals were humanely euthanized and the bladder and kidney samples were collected, homogenized, and serially diluted, and the serial dilutions were plated on blood agar to determine the bacterial burden. A transurethral inoculation of E. coli established persistent infections in the kidney and bladder in the absence of antibiotic treatment (PBS control group). The mean bacterial counts in the kidney and bladder were log10 6.328±0.132 and log10 6.171+0.155 CFU/g, respectively (FIG. 12).

[10] = system: fosfomycin resistant UTI E. coli isolates harboring the fosA gene; assay: Growth in BHI broth with fosfomycin, with or without 3FG6P; assay type: cell-based, Escherichia coli
Text: (§2) FIGS. 13A to 13D show a comparison of the antimicrobial activity of fosfomycin alone (FIG. 13A) and fosfomycin conjugated with 3FG6P or 4FG6P (FIG. 13B) against a fosfomycin resistant E. coli clinical isolate, and fosfomycin alone (FIG. 13C) and fosfomycin conjugated with 3FG6P or 4FG6P (FIG. 13D) against an S. aureus COL strain. The key in FIG. 13D applies to all graphs of FIGS. 13A-13D.
(§3) To test whether 3FG6P and 4FG6P can potentiate the efficacy of fosfomycin, clinical fosfomycin resistant UTI E. coli isolates harboring the fosA gene and S. aureus COL strain were obtained. Overnight cultures of these bacteria were grown in brain heart infusion (BHI) broth diluted to 0.5 McFarland turbidity and inoculated into fresh BHI broth supplemented with various concentrations of fosfomycin alone or fosfomycin supplemented with 3FG6P for E. coli or 4FG6P for S. aureus (50 μM).

S. aureus COL strain = assay: Growth in BHI broth with fosfomycin, with or without 4FG6P; assay type: cell-based, Staphylococcus aureus
Text: as §2, §3

Enterobacteriaceae = details: cited from earlier work
[11] = cited from earlier work
[12] = system: UhpT expression (HptARS system) in S. aureus LAC strain; assay: uhpT promoter-LuxABCDE bioluminescent reporter for UhpT expression; assay type: cell-based, Staphylococcus aureus; details: 500 μM in brain heart infusion broth
Procedure: FIG. 5 illustrates a LuxABCDE reporter system for monitoring expression of the UhpT by measuring bioluminescent light signals and strong and stable induction of UhpT expression by 3FG6P. S. aureus LAC strain harboring the LuxABCDE reporter system was cultured in a brain heart infusion broth supplemented with 500 μM glucose (Glc), glucose-6-phosphate (G6P), and 3-fluoro-glucose-6-phosphate (3FG6P) and the bioluminescent signal was monitored using a Cytation 5.
To test whether 3FG6P can induce expression of the UhpT, we generated a bioluminescent reporter plasmid in which the promoter region of the uhpT was fused to the promoterless LuxABCDE operon (FIG. 5). See Francis K P, Joh D, Bellinger-Kawahara C, Hawkinson M J, Purchio T F, Contag P R. Monitoring bioluminescent Staphylococcus aureus infections in living mice using a novel luxABCDE construct. Infection and immunity. 2000; 68(6):3594-600. Epub 2000/05/19. PubMed PMID: 10816517; PMCID: PMC97648 and Karsi A, Lawrence M L. Broad host range fluorescence and bioluminescence expression vectors for Gram-negative bacteria. Plasmid. 2007; 57(3):286-95. Epub 2007/01/09. doi: 10.1016/j.plasmid.2006.11.002. PubMed PMID: 17207855 for monitoring of the expression of UhpT by measuring bioluminescent light signals.

[13] = system: methicillin-resistant Staphylococcus aureus (MRSA); details: cited from earlier work
[14] = system: Staphylococcus epidermidis (MRSE); details: cited from earlier work
[15] = system: vancomycin-resistant Enterococcus (VRE)faecalis and faecium; details: cited from earlier work
Neisseria gonorrhea = details: cited from earlier work
Acinetobacter spp = details: cited from earlier work
Escherichia coli = details: cited from earlier work
Klebsiella pneumoniae = details: cited from earlier work
Proteus penneri = details: cited from earlier work
Pseudomonas aeruginosa = details: cited from earlier work
[16] = system: Stenotrophomonas maltophilia; details: cited from earlier work
[17] = BHI supplemented with 50 μM of 4FG6P

CC(=O)NC[C@H]1CN(c2ccc(N3CCN(C(=O)CCCOC4OC(COP(=O)(O)O)[C@@H](O)C(F)C4O)CC3)c(F)c2)C(=O)O1 (stereo partly shown) [Linezolid-3FG6P]
MIC ([1]; Acinetobacter baumannii, ATCCBAA1605, read-out: MIC): < 2 µg/mL | MIC ([2]; Klebsiella aerogenes, ATCC13048, read-out: MIC): 4 µg/mL (≈ 6 µM) | MIC ([3]; Enterobacter cloacae, ATCC13047, read-out: MIC): < 2 µg/mL | MIC ([4]; Escherichia coli, ATCC25922, read-out: MIC): 4 µg/mL (≈ 6 µM) | MIC ([5]; Klebsiella pneumoniae, ATCC35657, read-out: MIC): < 2 µg/mL | MIC ([6]; Salmonella enterica, read-out: MIC): 8 µg/mL (≈ 12 µM) | MIC ([7]; Staphylococcus aureus, ATCC25923, read-out: MIC): < 2 µg/mL | concentration range inhibiting growth ([8]; both Gram positive and Gram-negative pathogens): 2 to 8 µg/mL | bacterial counts in the bladder [9]: nearly completely cleared the infection | bacterial counts in the kidney [9]: completely cleared the infection

C[C@@H]1O[C@@H]1P(=O)(O)O [fosfomycin]
fosfomycin concentration at which growth was completely inhibited ([10]; BHI supplemented with 50 μM of 3FG6P): ≤ 2 µg/mL | fosfomycin concentration up to which growth was allowed ([10]; BHI, fosfomycin alone): up to 128 μg/ml | fosfomycin concentration at which growth was completely inhibited (S. aureus COL strain; [17]): 32 µg/mL | growth at fosfomycin concentrations lower than 32 μg/ml (S. aureus COL strain; [17]): significantly delayed | fosfomycin concentration up to which growth was allowed (S. aureus COL strain; BHI, fosfomycin alone): up to 128 μg/ml | minimum inhibitory concentration (MIC) breakpoint (Enterobacteriaceae): 8 to 32 µg/mL | metabolism in the liver ([11]; in vivo): not metabolized in the liver | oral bioavailability ([11]; oral administration): 30-37%

O=C[C@H](O)[C@@H](O)[C@H](O)[C@H](O)COP(=O)(O)O [glucose-6-phosphate]
duration of induced bioluminescent light signals [12]: 8 h

(S)—N-[[3-[3-fluoro-4-(N-1-piperazinyl)phenyl]-2-oxo-5-oxazolidinyl]methyl]acetamide [Linezolid]
MIC [1]: >64 µg/mL | MIC [2]: >64 µg/mL | MIC [3]: >64 µg/mL | MIC [4]: >64 µg/mL | MIC [5]: >64 µg/mL | MIC [6]: >64 µg/mL | MIC [7]: <2 µg/mL | MIC ([7]; listed as linezolid): less than 2 μg/ml | concentration failing to inhibit growth ([8]; Gram-negative pathogens): 64 µg/mL | bacterial counts in the bladder [9]: did not reduce bacterial counts | bacterial counts in the kidney [9]: did not reduce bacterial counts | MIC90 [13]: 1 to 4 µg/mL and 2 µg/mL | MIC90 [14]: 1 to 4 µg/mL and 1 µg/mL | MIC90 [15]: 1 to 4 µg/mL and 2 µg/mL | MIC90 (Neisseria gonorrhea): 16 µg/mL | antimicrobial activity (Acinetobacter spp): not active | antimicrobial activity (Escherichia coli): not active | antimicrobial activity (Klebsiella pneumoniae): not active | antimicrobial activity (Proteus penneri): not active | antimicrobial activity (Pseudomonas aeruginosa): not active | antimicrobial activity [16]: not active
